pIC50: −log10 of the molar value. Where two headings read alike, the source gives them in different places.
Key:
[1] = biological target: PI3Kγ (p110γ) Recombinant Human Protein (Homo sapiens (Human), UniProt P48736); assay: PI3K-γ Scintillation Proximity Assay; assay type: biochemical; settings: 20 μM PIP2, 2 μM ATP, 13 nM PI3Kγ, 120 min, room temperature
From the text: Example B. PI3K-γ Scintillation Proximity Assay Materials: [γ-^33P]ATP (10 mCi/mL) and Wheat Germ Agglutinin (WGA) YSi SPA Scintillation Beads was purchased from Perkin Elmer (Waltham, MA). Lipid kinase substrate, D-myo-Phosphatidylinositol 4,5-bisphosphate (PtdIns(4,5)P2)D (+)-sn-1,2-di-O-octanoylglyceryl, 3-O-phospho linked (PIP2), CAS 204858-53-7, was purchased from Echelon Biosciences (Salt Lake City, UT). PI3Kγ (p110γ) Recombinant Human Protein was purchased from Life technology (Grand Island, NY). ATP, MgCl2, DTT, EDTA, MOPS and CHAPS were purchased from Sigma Aldrich (St. Louis, MO). The kinase reaction was conducted in polystyrene 384-well Greiner Bio-one white plate from Thermo Fisher Scientific in a final volume of 25 μL. Inhibitors were first diluted serially in DMSO and added to the plate wells before the addition of other reaction components. The final concentration of DMSO in the assay was 2%. The PI3Kγ assay was carried out at room temperature in 20 mM MOPS, pH 6.7, 10 mM MgCl2, 5 mM DTT and CHAPS 0.03%. Reactions were initiated by the addition of ATP, the final reaction mixture consisted of 20 μM PIP2, 2 μM ATP, 0.5 μCi [γ-^33P] ATP, 13 nM PI3Kγ. Reactions were incubated for 120 min and terminated by the addition of 40 μL SPA beads suspended in quench buffer: 163 mM potassium phosphate pH 7.8, 20% glycerol, 25 mM EDTA. The final concentration of SPA beads is 1.0 mg/mL. After the plate sealing, plates were shaken overnight at room temperature and centrifuged at 1500 rpm for 10 min, the radioactivity of the product was determined by scintillation counting on Topcount (Perkin-Elmer). IC50 determination was performed by fitting the curve of percent of the solvent control activity versus the log of the inhibitor concentration using the GraphPad Prism 6.0 software.

[2] = test system: Phosphorylated Ribosomal Protein S6 (RPS6) in THP-1 cells; assay: THP-1 RPS6 ELISA Assay; assay type: cell-based, Human; settings: THP-1 cells, serum starved, 2 hours compound, 10 nM MCP-1 for 15 minutes, Phospho-RPS6 ELISA, read-out: PI3Kγ_THP1_RPS6_ELISA IC50
Description: Example A. THP-1 RPS6 ELISA Assay
To measure the Phosphorylated Ribosomal Protein S6 (RPS6) in cell lysates, THP-1 cells (Human Acute Monocytic Leukemia) are purchased from ATCC (Manassas, VA) and maintained in RPMI with 10% FBS (Gibco/Life Technologies, Carlsbad, CA). For the assay, THP-1 cells are serum starved overnight in RPMI, then plated in RPMI (2×10^5 cells/well in 90 μL) into 96-well flat-bottom tissue culture treated plates (Corning, Corning, NY), in the presence or absence of a concentration range of test compounds. Covered plates are incubated for 2 hours at 37° C., 5% CO2 then treated with or without 10 nM MCP-1(MYBioSource, San Diego, CA) for 15 minutes at 37° C., 5% CO2. Plates are centrifuged at 1600 RPM and supernatants are removed. Cells are lysed in Lysis Buffer (Cell Signaling, Danvers, MA) with Protease Inhibitor (Calbiochem/EMD, Germany), PMSF (Sigma, St Louis MO), HALTS (Thermo Fisher, Rockford, IL) for 30 min on wet ice. Cell lysates are frozen at −80° C. before testing. The lysates are tested in the Human/Mouse/Rat Phospho-RPS6 ELISA (R&D Systems, Inc. Minn, MN). The plate is measured using a microplate reader (SpectraMax M5—Molecular Devices, LLC Sunnyvale, CA) set to 450 nm with a wavelength correction of 540. IC50 determination is performed by fitting the curve of inhibitor percent inhibition versus the log of the inhibitor concentration using the GraphPad Prism 5.0 software.

[3] = biological target: PI3Kδ (p110δ/p85α) Recombinant Human Protein (Homo sapiens (Human), UniProt O00329); assay: PI3Kδ Scintillation Proximity Assay; assay type: biochemical; settings: 20 μM PIP2, 2 μM ATP, 3.4 nM PI3Kδ, 120 min, room temperature
From the text: Example C. PI3Kδ Scintillation Proximity Assay Materials: [γ-^33P]ATP (10 mCi/mL) and Wheat Germ Agglutinin (WGA) YSi SPA Scintillation Beads was purchased from Perkin Elmer (Waltham, MA). Lipid kinase substrate, D-myo-Phosphatidylinositol 4,5-bisphosphate (PtdIns(4,5)P2)D (+)-sn-1,2-di-O-octanoylglyceryl, 3-O-phospho linked (PIP2), CAS 204858-53-7, was purchased from Echelon Biosciences (Salt Lake City, UT). PI3Kδ (p110δ/p85α) Recombinant Human Protein was purchased from Eurofins (St Charles, MO). ATP, MgCl2, DTT, EDTA, MOPS and CHAPS were purchased from Sigma Aldrich (St. Louis, MO). The kinase reaction was conducted in polystyrene 384-well Greiner Bio-one white plate from Thermo Fisher Scientific in a final volume of 25 μL. Inhibitors were first diluted serially in DMSO and added to the plate wells before the addition of other reaction components. The final concentration of DMSO in the assay was 2%. The PI3Kδ assay was carried out at room temperature in 20 mM MOPS, pH 6.7, 10 mM MgCl2, 5 mM DTT and CHAPS 0.03%. Reactions were initiated by the addition of ATP, the final reaction mixture consisted of 20 μM PIP2, 2 μM ATP, […] [γ-^33P] ATP, 3.4 nM PI3Kδ. Reactions were incubated for 120 min and terminated by the addition of 40 μL SPA beads suspended in quench buffer: 163 mM potassium phosphate pH 7.8, 20% glycerol, 25 mM EDTA. The final concentration of SPA beads is 1.0 mg/mL. After the plate sealing, plates were shaken overnight at room temperature and centrifuged at 1500 rpm for 10 min, the radioactivity of the product was determined by scintillation counting on Topcount (PerkinElmer). IC50 determination was performed by fitting the curve of percent of the solvent control activity versus the log of the inhibitor concentration using the GraphPad Prism 6.0 software.

Chain of PI3Kδ (p110δ/p85α) Recombinant Human Protein (O00329 whole entry): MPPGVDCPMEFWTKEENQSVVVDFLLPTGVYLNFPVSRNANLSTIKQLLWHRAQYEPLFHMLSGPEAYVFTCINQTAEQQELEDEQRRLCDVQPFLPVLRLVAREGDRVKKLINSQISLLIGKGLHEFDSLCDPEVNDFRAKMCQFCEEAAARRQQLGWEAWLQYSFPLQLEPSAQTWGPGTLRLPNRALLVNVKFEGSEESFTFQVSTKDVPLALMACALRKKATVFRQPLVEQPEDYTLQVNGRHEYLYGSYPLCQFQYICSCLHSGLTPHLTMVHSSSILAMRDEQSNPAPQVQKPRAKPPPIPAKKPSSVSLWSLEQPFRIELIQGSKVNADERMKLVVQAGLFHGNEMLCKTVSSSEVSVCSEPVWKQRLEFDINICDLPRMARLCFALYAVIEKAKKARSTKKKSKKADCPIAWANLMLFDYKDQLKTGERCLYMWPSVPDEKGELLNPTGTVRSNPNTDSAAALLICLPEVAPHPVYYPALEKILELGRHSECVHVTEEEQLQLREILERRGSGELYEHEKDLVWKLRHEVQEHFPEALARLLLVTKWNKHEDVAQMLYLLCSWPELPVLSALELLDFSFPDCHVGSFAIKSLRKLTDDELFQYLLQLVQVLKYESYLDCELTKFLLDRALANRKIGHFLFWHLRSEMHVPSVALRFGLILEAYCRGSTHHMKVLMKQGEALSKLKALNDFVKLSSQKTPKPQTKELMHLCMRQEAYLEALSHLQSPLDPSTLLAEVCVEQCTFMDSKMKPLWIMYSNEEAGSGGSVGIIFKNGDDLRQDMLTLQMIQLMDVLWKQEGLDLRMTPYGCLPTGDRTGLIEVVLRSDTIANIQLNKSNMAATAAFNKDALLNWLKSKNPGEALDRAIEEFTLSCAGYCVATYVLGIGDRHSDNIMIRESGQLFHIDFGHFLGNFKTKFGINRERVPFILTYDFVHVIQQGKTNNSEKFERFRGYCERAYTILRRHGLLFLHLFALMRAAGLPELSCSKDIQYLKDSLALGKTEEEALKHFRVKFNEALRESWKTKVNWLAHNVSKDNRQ
Chain of PI3Kδ (p110δ/p85α) Recombinant Human Protein (P27986 whole entry partner): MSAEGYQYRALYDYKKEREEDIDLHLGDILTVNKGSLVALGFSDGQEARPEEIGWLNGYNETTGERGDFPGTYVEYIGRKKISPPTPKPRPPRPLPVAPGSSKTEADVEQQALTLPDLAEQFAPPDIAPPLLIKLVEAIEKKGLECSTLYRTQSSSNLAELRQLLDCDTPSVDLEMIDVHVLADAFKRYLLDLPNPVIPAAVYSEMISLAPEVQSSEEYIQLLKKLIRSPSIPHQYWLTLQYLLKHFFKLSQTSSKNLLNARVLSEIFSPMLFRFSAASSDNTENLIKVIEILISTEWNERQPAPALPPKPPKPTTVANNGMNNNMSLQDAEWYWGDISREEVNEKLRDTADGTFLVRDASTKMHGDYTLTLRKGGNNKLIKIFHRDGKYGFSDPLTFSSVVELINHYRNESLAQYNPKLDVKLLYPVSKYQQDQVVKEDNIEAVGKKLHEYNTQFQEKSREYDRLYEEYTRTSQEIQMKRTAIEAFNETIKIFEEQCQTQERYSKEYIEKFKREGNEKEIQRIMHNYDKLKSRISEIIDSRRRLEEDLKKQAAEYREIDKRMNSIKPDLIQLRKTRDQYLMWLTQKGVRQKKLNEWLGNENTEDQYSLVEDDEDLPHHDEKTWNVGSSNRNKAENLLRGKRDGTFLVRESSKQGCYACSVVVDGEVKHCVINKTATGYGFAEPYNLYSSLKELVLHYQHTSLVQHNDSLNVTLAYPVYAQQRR
Chain of PI3Kγ (p110γ) Recombinant Human Protein (P48736 whole entry): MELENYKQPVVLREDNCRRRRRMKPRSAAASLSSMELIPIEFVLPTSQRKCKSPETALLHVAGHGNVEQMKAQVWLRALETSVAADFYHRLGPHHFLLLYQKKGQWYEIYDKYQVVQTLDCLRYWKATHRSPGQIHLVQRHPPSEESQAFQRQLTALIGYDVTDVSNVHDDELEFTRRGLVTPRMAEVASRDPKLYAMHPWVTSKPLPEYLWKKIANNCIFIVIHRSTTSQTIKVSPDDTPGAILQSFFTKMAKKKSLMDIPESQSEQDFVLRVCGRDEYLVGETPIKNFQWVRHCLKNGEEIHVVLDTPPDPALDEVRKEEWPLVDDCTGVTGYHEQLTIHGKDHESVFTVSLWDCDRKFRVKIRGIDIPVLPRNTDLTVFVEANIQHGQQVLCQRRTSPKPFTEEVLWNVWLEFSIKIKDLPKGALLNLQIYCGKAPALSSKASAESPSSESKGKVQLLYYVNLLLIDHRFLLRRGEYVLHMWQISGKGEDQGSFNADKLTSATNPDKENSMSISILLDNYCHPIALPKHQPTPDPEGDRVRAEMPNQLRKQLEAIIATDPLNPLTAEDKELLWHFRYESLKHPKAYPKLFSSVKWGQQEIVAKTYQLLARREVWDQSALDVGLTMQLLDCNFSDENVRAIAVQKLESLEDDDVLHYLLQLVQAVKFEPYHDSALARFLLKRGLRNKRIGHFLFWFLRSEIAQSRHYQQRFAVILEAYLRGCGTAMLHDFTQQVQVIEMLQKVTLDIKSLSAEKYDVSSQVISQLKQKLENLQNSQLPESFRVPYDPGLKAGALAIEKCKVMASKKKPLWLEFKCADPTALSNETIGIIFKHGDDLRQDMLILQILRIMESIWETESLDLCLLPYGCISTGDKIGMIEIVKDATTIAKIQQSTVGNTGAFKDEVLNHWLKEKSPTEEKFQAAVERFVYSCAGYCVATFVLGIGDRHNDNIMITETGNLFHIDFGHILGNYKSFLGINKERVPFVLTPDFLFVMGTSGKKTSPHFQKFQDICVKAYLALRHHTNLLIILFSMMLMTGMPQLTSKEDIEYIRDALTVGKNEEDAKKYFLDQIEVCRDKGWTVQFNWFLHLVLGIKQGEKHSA

Cc1ccc(C(O)(CO)C(F)F)cc1-c1cnc(N)c(C(=O)NC23CCC(O)(CC2)C3)n1 (single isomer, unassigned) [Example 44, 3-Amino-6-(5-(1,1-difluoro-2,3-dihydroxypropan-2-yl)-2-methylphenyl)-N-(4-hydroxybicyclo[2.2.1]heptan-1-yl)pyrazine-2-carboxamide]
pIC50 [1]: ≥ 7.00 | pIC50 ([2]; Homo sapiens): > 7.00 | pIC50 [3]: ≥ 7.00

[2H]C([2H])([2H])c1ccc(C(O)(CO)C(F)(F)F)cc1-c1cnc(N)c(C(=O)NC23CCC(CO)(C2)C3)n1 (single isomer, unassigned) [Example 31]
pIC50 [1]: ≥ 7.00 | pIC50 ([2]; Homo sapiens): > 7.00 | pIC50 [3]: ≥ 7.00

[2H]C([2H])([2H])c1ccc(C(O)(CO)C(F)(F)F)cc1-c1cnc(N)c(C(=O)NC23CCC(O)(C2)C3)n1 (single isomer, unassigned) [Example 37]
pIC50 [1]: ≥ 7.00 | pIC50 ([2]; Homo sapiens): > 7.00 | pIC50 [3]: ≥ 7.00

[2H]C([2H])([2H])c1ccc(C(O)(C(C)O)C(F)(F)F)cc1-c1cnc(N)c(C(=O)NC2CCOCC2)n1 (single isomer, unassigned) [Example 19, 3-Amino-6-(2-(methyl-d3)-5-(1,1,1-trifluoro-2,3-dihydroxybutan-2-yl)phenyl)-N-(tetrahydro-2H-pyran-4-yl)pyrazine-2-carboxamide]
pIC50 [1]: ≥ 7.00 | pIC50 ([2]; Homo sapiens): > 6.30 | pIC50 [3]: ≥ 6.30

Cc1ccc(C(O)(CO)C(F)F)cc1-c1cnc(N)c(C(=O)NC23CCC(C#N)(C2)C3)n1 (single isomer, unassigned) [Example 48, 3-Amino-N-(4-cyanobicyclo[2.1.1]hexan-1-yl)-6-(5-(1,1-difluoro-2,3-dihydroxypropan-2-yl)-2-methylphenyl)pyrazine-2-carboxamide]
pIC50 [1]: ≥ 7.00 | pIC50 ([2]; Homo sapiens): > 7.00 | pIC50 [3]: ≥ 7.00

[2H]C([2H])([2H])c1ccc(C(O)(CO)C(F)F)cc1-c1cnc(N)c(C(=O)NC23CCC(O)(CC2)C3)n1 (single isomer, unassigned) [Example 18, 3-Amino-6-(5-(1,1-difluoro-2,3-dihydroxypropan-2-yl)-2-(methyl-d3)phenyl)-N-(4-hydroxybicyclo[2.2.1]heptan-1-yl)pyrazine-2-carboxamide]
pIC50 [1]: ≥ 7.00 | pIC50 ([2]; Homo sapiens): > 7.00 | pIC50 [3]: ≥ 7.00

[2H]C([2H])([2H])c1ccc(C(O)(CO)C(F)(F)F)cc1-c1cnc(N)c(C(=O)N[C@]2(C)C[C@H](O)C2)n1 (single isomer, unassigned) [Example 30]
pIC50 [1]: ≥ 7.00 | pIC50 ([2]; Homo sapiens): > 7.00 | pIC50 [3]: ≥ 7.00

[2H]C([2H])([2H])c1ccc(C(O)(CO)C(F)(F)F)cc1-c1cnc(N)c(C(=O)N[C@H]2C[C@](O)(C(F)(F)F)C2)n1 (single isomer, unassigned) [Example 29]
pIC50 [1]: ≥ 7.00 | pIC50 ([2]; Homo sapiens): > 7.00 | pIC50 [3]: ≥ 7.00

Cc1ccc([C@](O)(CO)C(F)F)cc1-c1cnc(N)c(C(=O)N[C@@H](C)CO)n1 (single isomer, unassigned) [Example 43]
pIC50 [1]: ≥ 7.00 | pIC50 ([2]; Homo sapiens): > 6.30 | pIC50 [3]: ≥ 6.30

[2H]C([2H])([2H])c1ccc(C(O)(CO)C(F)(F)F)cc1-c1cnc(N)c(-c2cnc(C)o2)n1 (single isomer, unassigned) [Example 16, 2-(3-(5-Amino-6-(2-methyloxazol-5-yl)pyrazin-2-yl)-4-(methyl-d3)phenyl)-3,3,3-trifluoropropane-1,2-diol]
pIC50 [1]: ≥ 7.00 | pIC50 ([2]; Homo sapiens): > 7.00 | pIC50 [3]: ≥ 7.00

[2H]C([2H])([2H])c1ccc(C(O)(CO)C(F)(F)F)cc1-c1cnc(N)c(C(=O)NC2CC(C#N)C2)n1 (single isomer, unassigned) [Example 26]
pIC50 [1]: ≥ 7.00 | pIC50 ([2]; Homo sapiens): > 7.00 | pIC50 [3]: ≥ 7.00

Cc1ccc([C@](O)(CO)C(F)F)cc1-c1cnc(N)c(C(=O)N2CCC[C@@H]2CO)n1 [Example 45, (3-Amino-6-(5-((S)-1,1-difluoro-2,3-dihydroxypropan-2-yl)-2-methylphenyl)pyrazin-2-yl)((R)-2-(hydroxymethyl)pyrrolidin-1-yl)methanone]
pIC50 [1]: ≥ 7.00 | pIC50 [2]: > 6.30 | pIC50 [3]: > 5.70

Cc1ccc(C(O)(CO)C(F)(F)F)cc1-c1cnc(N)c(-n2cccn2)n1 (single isomer, unassigned) [Example 12, 2-(3-(5-Amino-6-(1H-pyrazol-1-yl)pyrazin-2-yl)-4-methylphenyl)-3,3,3-trifluoropropane-1,2-diol]
pIC50 [1]: ≥ 7.00 | pIC50 ([2]; Homo sapiens): > 7.00 | pIC50 [3]: ≥ 7.00

Cc1ccc(C(O)(CO)C(F)F)cc1-c1cnc(N)c(C(=O)NC2CCOCC2)n1 (single isomer, unassigned) [Example 42]
pIC50 [1]: ≥ 7.00 | pIC50 ([2]; Homo sapiens): > 7.00 | pIC50 [3]: ≥ 7.00

[2H]C([2H])([2H])c1ccc(C(O)(CO)C(F)(F)F)cc1-c1cnc(N)c(C(=O)NC2CCOCC2)n1 (single isomer, unassigned) [Example 17, 3-Amino-6-(2-(methyl-d3)-5-(1,1,1-trifluoro-2,3-dihydroxypropan-2-yl)phenyl)-N-(tetrahydro-2H-pyran-4-yl)pyrazine-2-carboxamide]
pIC50 [1]: ≥ 7.00 | pIC50 ([2]; Homo sapiens): > 7.00 | pIC50 [3]: ≥ 7.00

Cc1ccc(C(O)(C(C)(C)O)C(F)(F)F)cc1-c1cnc(N)c(C(=O)NC2CCOCC2)n1 (stereo not shown) [Example 22, 3-Amino-6-(2-methyl-5-(1,1,1-trifluoro-2,3-dihydroxy-3-methylbutan-2-yl)phenyl)-N-(tetrahydro-2H-pyran-4-yl)pyrazine-2-carboxamide]
pIC50 [1]: ≥ 7.00 | pIC50 ([2]; Homo sapiens): > 7.00 | pIC50 [3]: ≥ 6.30

Cc1ccc(C(O)(CO)C(F)(F)F)cc1-c1cnc(N)c(C(=O)NCC(C)(C)C#N)n1 (single isomer, unassigned) [Example 34]
pIC50 [1]: ≥ 7.00 | pIC50 [3]: ≥ 7.00

Cc1ccc(C(O)(CO)C(F)(F)F)cc1-c1cnc(N)c(C(=O)NC23CCC(O)(CC2)C3)n1 (single isomer, unassigned) [Example 35]
pIC50 [1]: ≥ 7.00 | pIC50 [3]: ≥ 7.00

— patent US11926616B2, “Aminopyrazine diol compounds as PI3K-γ inhibitors” (Incyte Corporation, priority 2018, dated 2024)
